We go through one molecule from patent US8916564B2, “Substituted pyrido[1,2-a]pyrazines for the treatment of neurodegenerative and neurological disorders” (priority 2012, dated 2014).

The test concerns the target γ-secretase (Cricetulus griseus, UniProt G3HNF2). Kind of test: Cell-Based γ-Secretase Assay with ELISA Readout (production of amyloid beta protein Aβ(1-42)). The settings on record: human WT-APP overexpressing CHO cells; Aβ(1-42) ELISA; geometric mean of 2-4 determinations (b: single determination; c: geometric mean of ≧5 determinations).

Procedure: The ability of compounds to modulate production of amyloid beta protein Aβ(1-42) was determined using human WT-APP overexpressing CHO cells. Cells were plated at 22,000 cells/100 μL well in 96 well tissue culture treated, clear plates (Falcon) in DMEM/F12 based medium and incubated for 24 hours at 37° C. […] Compounds were added in fresh medium to achieve 1% final DMSO. Appropriate vehicle or inhibitor controls were added into control wells individually to obtain minimum or maximum inhibition values, respectively, for the assay signal window before the plates were incubated for ˜24 hours at 37° C. This procedure produces conditioned media in each well which is tested for Aβ(1-42) levels in the ELISA detection step described next. The remaining cell cultures in each well are also tested for cell toxicity as described below.
Coating of ELISA assay plates was initiated by addition of 50 μL/well of an in-house Aβ(1-42) specific antibody at (3 μg/mL) in 0.1 M NaHCO3 (pH 9.0) into black 384-well Maxisorp® plates (Nunc) and incubated overnight at 4° C. […] Cell toxicity was also measured in the corresponding remaining cells after removal of the conditioned media for the Aβ(1-42) assay by a colorimetric cell proliferation assay (CellTiter 96®AQueous One Solution Cell Proliferation Assay, Promega) according to the manufacturer's instructions. […]

For the molecule `Cc1cn(-c2ccc3n(c2=O)CCN(CC2CC(c4ccc(Cl)c(C(F)(F)F)c4)=NO2)C3=O)cn1` (stereo not shown) [Example 32, 2-({3-[-chloro-3-(trifluoromethyl)phenyl]-4,5-dihydro-1,2-oxazol-5-yl}methyl)-7-(4-methyl-1H-imidazol-1-yl)-3,4-dihydro-2H-pyrido[1,2-a]pyrazine-1,6-dione], the midpoint of inhibition, the IC50, lay at 0.429 µM.
